Test system: Human immunodeficiency virus 1
Assay: Antiviral activity against HIV1 3B infected in HeLa cells expressing CD4/CCR5/beta-Gal after 48 hrs by MAGI assay
Format: functional, organism-based
Conditions: Human immunodeficiency virus 1, 3B

EC50 [µM]	SMILES
0.64	C#CCOCc1ccc(C(=O)c2ccc(-c3ccc4c(c3)SC(=N)N3CCCN=C43)cc2)cc1
5.11	N=C1Sc2cc(Br)ccc2C2=NCC3(CCN(C(=O)OCc4ccc(C(=O)c5ccc(COC(=O)NCCOCCOCCOCCNC(=O)CCCC[C@@H]6SC[C@@H]7NC(=O)N[C@@H]76)cc5)cc4)CC3)CN12
6.87	N=C1Sc2cc(-c3ccc(C(=O)c4ccc(COC(=O)NCCOCCOCCOCCNC(=O)CCCC[C@@H]5SC[C@@H]6NC(=O)N[C@@H]65)cc4)cc3)ccc2C2=NCCCN12

From ChEMBL document CHEMBL2346544, “Design and synthesis of biotin- or alkyne-conjugated photoaffinity probes for studying the target molecules of PD 404182” (Bioorg Med Chem, 2013)
